Assay results as given in patent US9452985B2, “Tau imaging probe” (GE Healthcare Limited, priority 2010, dated 2016).

Columns and labels:
[1] = tested on: neurofibrillary tangles; assay: Staining test on brain section of Alzheimer's disease patients; assay type: binding, human; conditions: 100 μM solution in 50% ethanol, 10 minutes, fluorescence microscope
Source text: The procedure of staining test on the compounds of the present invention on the brain section of Alzheimer's disease patients is described below:
(1) We used the brain specimens of the temporal lobe or hippocampus from patients who were definitely diagnosed as having Alzheimer's disease pathology. The specimens were obtained from Choju Medical Institute, Fukushimura Hospital, our collaborating research institute, and the consent for use for research purposes was obtained from the patients' bereaved family (Fukushimura Hospital, Ethics Committee Approval No. 20).
(2) The paraffin-embedded brain tissue was sliced to 6 or 8 μm thickness, extended on a slide glass, and dried. The paraffinized brain section was deparaffinized by washing with xylene for 10 minutes×2, 100% ethanol for 5 minutes×2, 90% ethanol for 5 minutes, and running water for 10 minutes in this order.
(3) As a pretreatment for staining with the compounds of the present invention, the treatment to remove autofluorescence with lipofuscin was performed. First, the paraffinized brain section was immersed in 0.25% KMnO4 solution for 20 minutes. It was washed with PBS for 2 minutes twice, immersed in a 0.1% K2S2O5/oxalic acid solution for approximately 5 minutes, and further washed with PBS for 2 minutes 3 times.
(4) From 100 μM solution of the compounds of the present invention dissolved in 50% ethanol, approximately 150 μl was dropped on the section to react for 10 minutes. After being immersed in tap water 5 times, it was mounted with Flour Save Reagent (Calbiochem) and examined with a fluorescence microscope (Nikon, ECLIPSE 80i). The images were taken with a digital camera (Nikon, Dxin1200F or Photometrics, Cool SNAP ES).

[2] = tested on: neurofibrillary tangles (tau protein); assay: Autoradiography experiments using [^18F] THK-5105, [^18F] THK-5117 and [^18F] THK-5125; assay type: binding, human; conditions: hippocampus section and adjacent sections, higher magnification images
Experimental: Paraffin-embedded sections of the brain from an Alzheimer's disease patient were deparaffinized, and then immersed in PBS for 10 minutes. Approximately 400 μCi/ml of each of [^18F] THK-5105, [^18F] THK-5117, and [^18F] THK-5125 was added dropwise to deparaffinized sections and allowed to react for 10 minutes at room temperature. After that, the sections were immersed in distilled water for 2 minutes, shaken lightly in 50% EtOH for 2 minutes, immersed again in distilled water for 2 minutes, and dried in a paraffin stretching device. The section was left overnight in contact with an imaging plate. Next day, the image was read with a BAS 5000 (Fujifilm Corporation). In addition, adjacent sections were immunostained with anti-phosphorylated tau antibody (AT8).

[3] = target: K18-ΔK280 aggregates (Homo sapiens (Human), UniProt P10636, DEL597-597); assay: Saturation binding test of THK-5105; conditions: [^18F] THK-5105 0.1 to 100 nM, K18-ΔK280 aggregates 200 nM, room temperature, one hour; read-out: dissociation constant Kd
Sequence of K18-ΔK280 aggregates (P10636 other isoform, or with tags, fused parts or gaps del 597-597): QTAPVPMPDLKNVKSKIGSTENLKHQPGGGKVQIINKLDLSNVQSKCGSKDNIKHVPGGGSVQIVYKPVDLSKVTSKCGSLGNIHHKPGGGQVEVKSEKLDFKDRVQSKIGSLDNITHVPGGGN
Experimental: Regarding the binding of tau imaging probes to tau protein aggregates, a binding test was carried out and evaluated using a K18-ΔK280 construct which contained a 4-repeat structure involved in the formation of beta-sheet structures in the htau40 protein. For K18-ΔK280 (Martin von Bergen et al., THE JOURNAL OF BIOLOGICAL CHEMISTRY (2001), vol. 276, pp. 48165-48174; M. Goedert et al., NEURON (1989), vol. 3, pp. 519-526), an artificial gene fragment which was prepared based on its amino acid sequence was cloned into a pET-3a vector, the resulting plasmid was used to transform Escherichia coli BL21 (DE3) competent cells for protein expression, and the recombinant Escherichia coli cell was cultured to express K18-ΔK280. […]
K18-ΔK280 aggregates were made by preparing 20 μM PBS (pH 7.4) and incubating the K18-ΔK280 in the PBS at 37° C. for 4 days. The state where beta-sheet structures in K18-ΔK280 aggregates were formed was ascertained by thioflavin S fluorescence binding test. […]
In the binding test of [^18F] […] THK-5105 to K18-ΔK280 aggregates was calculated from the radioactivity of the filter which was measured on a gamma counter (AccuFLEX γ7000, Aloka). Non-specific binding was determined by adding unlabeled THK-5105 (at a final concentration of 2 μM) to the reaction system and performing experiments in a similar way.

**Q.** Which “binding to neurofibrillary tangles in the brain section of Alzheimer's disease patients (staining test)” value [1] does the source give for CN(C)c1ccc(-c2ccc3cc(OCC(O)CF)ccc3n2)cc1 (stereo not drawn) [THK-5105, 6-[(3-fluoro-2-hydroxy)propoxy]-2-(4-dimethylaminophenyl)quinoline] here?
**A.** bind to neurofibrillary tangles specifically and selectively

**Q.** What about the “correspondence of autoradiography / unlabeled staining image with anti-phosphorylated tau antibody (AT8) immunostaining” value [2] of the same compound?
**A.** corresponded well with the image of immunostaining with the anti-phosphorylated tau antibody

**Q.** What about the Kd [3] of the same compound?
**A.** 3.9 nM
